Measurements from patent US7795220B2, “Conformationally constrained parathyroid hormones with alpha-helix stabilizers” (The General Hospital Corporation, priority 2003, dated 2010).
Non-standard residues stand in square brackets, D forms with d. Residues, ends and D or L forms follow the SMILES beside them. No end group written: not given here. hArg = N=C(N)NCCCC[C@H](N)C(=O)O; Ac5c = NC1(C(=O)O)CCCC1; Deg = CCC(N)(CC)C(=O)O; Aib = CC(C)(N)C(=O)O

Experiments:
hP1R-delNt = biological target: T1, hP1R-delNt (Homo sapiens, UniProt Q03431); assay: cAMP stimulation in LdelNt-2 cells; format: cell-based
T1 construct: expressed in transfected cells
T1 sequence (Q03431 with tags, fused parts or gaps limits assumed): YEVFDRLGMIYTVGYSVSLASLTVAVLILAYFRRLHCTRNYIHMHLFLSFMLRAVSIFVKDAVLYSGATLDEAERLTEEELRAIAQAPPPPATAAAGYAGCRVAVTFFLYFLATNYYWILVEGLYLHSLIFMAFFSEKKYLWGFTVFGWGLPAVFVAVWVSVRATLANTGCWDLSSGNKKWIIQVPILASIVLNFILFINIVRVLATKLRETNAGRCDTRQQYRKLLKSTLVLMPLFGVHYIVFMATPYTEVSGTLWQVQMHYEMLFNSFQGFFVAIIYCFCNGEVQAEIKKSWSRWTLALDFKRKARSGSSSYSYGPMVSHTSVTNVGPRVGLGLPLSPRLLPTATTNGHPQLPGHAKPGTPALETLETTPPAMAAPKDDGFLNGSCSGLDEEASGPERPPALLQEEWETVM
Text: (§1) Cell Culture. The cell line HKRK-B28 (Takasu, H., et al., J. Bone Miner. Res. 14:11-20 (1999)) was derived from the porcine kidney cell line, LLC-PK1 by stable transfection with plasmid DNA encoding a recombinant P1R chimera comprised of the opposum P1R from the N-terminus to the mid region of TM3 and the rat P1R from the mid region of TM3 to the C-terminus. The surface density of the P1R in these cells is ˜280,000 receptors per cell. The clonal cell line LdelNt-2 was derived from LLC-PK, cells via stable transfection with a plasmid encoding P1R-delNt, a recombinant human PTH-1 receptor construct in which most of the amino-terminal extracellular domain is deleted. These cells, as well as COS-7 cells and SaOS-2-B10 cells, were cultured at […] in T-75 flasks ([…]) in Dulbecco's modified Eagle's medium (DMEM) supplemented with fetal bovine serum (10%), penicillin G (20 units/ml), streptomycin sulfate (20 μg/ml) and amphotericin B (0.05 μg/ml) in a humidified atmosphere containing 5% CO2. Stock solutions of EGTA/trypsin and antibiotics were from GLBCO; fetal bovine serum was from Hyclone Laboratories (Logan, Utah). COS-7 cells sub-cultured in 24-well plates were transfected with plasmid DNA (200 ng per well) encoding the wild-type human P1R or truncated human P1R deleted for residues (24-181) (Shimizu, M., et al., J. Biol. Chem. 275:21836-21843 (2000)) that was purified by cesium chloride/ethidium bromide density gradient centrifugation, and FuGENE 6 transfection reagent (Roche Indianapolis Ind.) according to the manufacturer's recommended procedure. All cells, in 24-well plates, were treated with fresh media and shifted to 33° C. for 12 to 24 h prior to assay.
(§2) cAMP Stimulation. Stimulation of cells with peptide analogs was performed in 24-well plates. Cells were rinsed with 0.5 mL of binding buffer (50 mM Tris-HCl, 100 mM NaCl, 5 mM KCl, 2 mM CaCl2, 5% heat-inactivated horse serum, 0.5% fetal bovine serum, adjusted to pH 7.5 with HCl) and treated with 200 μL of cAMP assay buffer (Delbecco's modified Eagle's medium containing 2 mM 3-isobutyl-1-methylxanthine, 1 mg/mL bovine serum albumin, 35 mM Hepes-NaOH, pH 7.4) and 100 μL of binding buffer containing varying amounts of peptide analog (final volume=300 μL). The medium was removed after incubation for 30 to 60 minutes at room temperature, and the cells were frozen on dry ice, lysed with 0.5 mL 50 mM HCl, and refrozen ([…]). The cAMP content of the diluted lysate was determined by radioimmunoassay. The EC50 response values were calculated using nonlinear regression (see below).
(§3) Data Calculation. Calculations were performed using Microsoft® Excel. Nonlinear regression analyses of binding and cAMP dose-response data were performed using the four-parameter equation: yp=Min+[(Max−Min)/(1+(IC50/x)^slope)]. The Excel Solver function was utilized for parameter optimization, as described previously (Carter, P. H., et al., Endocrinology 140: 4972-4981 (1999); Bowen, W. P., and Jerman, J. C., Trends in Pharmacol. Sci. 16: 413-417 (1995)). Differences between paired data sets were statistically evaluated using a one-tailed Student's t-test, assuming unequal variances for the two sets.
Agonist activities of selected analogs in cells expressing P1R-delNt were examined. This PTH-1 receptor construct lacks most of the N domain, but nevertheless mediates full agonist responses to N-terminally modified PTH analogs, and thus enables the relative roles of the receptor's N and J domains to the ligand interaction process to be evaluated. The clonal cell line LdelNT-2 was used, which was derived from LLC-PK, cells by stable transfection with a plasmid encoding the human P1R-delNt construct.

[1] = test system: P1R (recombinant P1R chimera) in HKRK-B28 cells; assay: cAMP stimulation in HKRK-B28 cells; format: cell-based, opposum/rat chimera
Text: as §1, §2, §3

[2] = biological target: T2, P1R (recombinant P1R chimera) in HKRK-B28 cells (UniProt P25107+P25961, A364S/A509S/A517P/A524T/DEL519-521/E344G/G506A/H528S/I365V/I416T/I429T/K402R/K465R/L320I/M408V/N352H/S511P/S523T/T335G/T421L/T487S/V367L/V433I); assay: biochemical; format: binding, opposum/rat chimera
T2 construct: the opposum P1R from the N-terminus to the mid region of TM3; the rat P1R from the mid region of TM3 to the C-terminus; expressed in transfected cells
Text: as §1
Competition Binding. Binding reactions were performed with HKRK-B28 cells or in COS-7 cells in 24-well plates. The cells were rinsed with 0.5 mL of binding buffer, and then treated successively with 100 μL binding buffer, 100 μL of binding buffer containing various amounts of unlabeled competitor ligand, and 100 μL of binding buffer containing ca. 100,000 cpm of ^125I-[Aib^1,3,Nle^8,Gln^10,Har^11,Ala^12,Trp^14,Arg^19,Tyr^21]rPTH(1-21) (SEQ. ID. NO. 36) (ca. 26 fmol; final volume=300 μL). Incubations were 4 to 6 h at 4° C., at which time near equilibrium conditions were attained. Cells were then placed on ice, the binding medium was removed, and the monolayer was rinsed three times with 0.5 mL of cold binding buffer. The cells were subsequently lysed with 0.5 mL 5N NaOH and counted for radioactivity. For each tracer and in each experiment, the non-specific binding was determined as the radioactivity that bound in the presence of the same unlabeled peptide at a concentration of 1 μM, and was ˜1% of total radioactivity added for each tracer. The maximum specific binding (B0) was the total radioactivity bound in the absence of competing ligand, corrected for nonspecific binding, and for each tracer, ranged from 8% to 20% of the total radioactivity added. Nonlinear regression was used to calculate binding IC50 values (see below). Scatchard transformations of homologous competition binding data derived from studies with 26 fmol of ^125I-[Aib^1,3,Nle^8,Gln^10,Har^11,Ala^12,Trp^14, Arg^19,Tyr^21]rPTH(1-21) (SEQ. ID. NO. 36) were employed for estimations of apparent equilibrium dissociation constant (kDapps) and total number of ligand binding sites (Bmax), assuming a single class of binding sites and equal affinities of the iodinated and non iodinated ligand.
as §3, with “Differences between paired data sets were statistically evaluated using a one-tailed Student's t-test, assuming unequal variances for the two sets.” left out

P1R = assay: Antagonism of agonist-induced cAMP activity; format: cell-based; conditions: analog at 10^−5 M, agonist at 10^−9 M
Method: Polypeptides described herein can be screened for their agonistic or antagonistic properties using the cAMP accumulation assay. Cells expressing PTH-1 receptor on the cell surface are incubated with native PTH(1-84) (SEQ. ID. NO. 18) for 5-60 minutes at 37° C., in the presence of 2 mM IBMX (3-isobutyl-1-methyl-xanthine, Sigma, St. Louis, Mo.). Cyclic AMP accumulation is measured by specific radio-immunoassay. A compound that competes with native PTH(1-84) or PTH(1-34) (SEQ. ID. NO. 19) for binding to the PTH-1 receptor, and that inhibits the effect of native PTH(1-84) or PTH(1-34) on cAMP accumulation, is considered a competitive antagonist. Such a compound would be useful for treating hypercalcemia.
Ligands that function as antagonists can be useful for treating hyperparathyroidism. Analogs of [Ac5c^1, Aib^3, M]PTH(1-14)(parent) (SEQ. ID. NO. 15) containing N-terminal modifications predicted to dissociate signaling and binding affinity (e.g. desamino-1, Trp-2, Bpa-2, Arg-2, Deg-1,3).

T2 sequence (P25107+P25961 fused with the stated changes): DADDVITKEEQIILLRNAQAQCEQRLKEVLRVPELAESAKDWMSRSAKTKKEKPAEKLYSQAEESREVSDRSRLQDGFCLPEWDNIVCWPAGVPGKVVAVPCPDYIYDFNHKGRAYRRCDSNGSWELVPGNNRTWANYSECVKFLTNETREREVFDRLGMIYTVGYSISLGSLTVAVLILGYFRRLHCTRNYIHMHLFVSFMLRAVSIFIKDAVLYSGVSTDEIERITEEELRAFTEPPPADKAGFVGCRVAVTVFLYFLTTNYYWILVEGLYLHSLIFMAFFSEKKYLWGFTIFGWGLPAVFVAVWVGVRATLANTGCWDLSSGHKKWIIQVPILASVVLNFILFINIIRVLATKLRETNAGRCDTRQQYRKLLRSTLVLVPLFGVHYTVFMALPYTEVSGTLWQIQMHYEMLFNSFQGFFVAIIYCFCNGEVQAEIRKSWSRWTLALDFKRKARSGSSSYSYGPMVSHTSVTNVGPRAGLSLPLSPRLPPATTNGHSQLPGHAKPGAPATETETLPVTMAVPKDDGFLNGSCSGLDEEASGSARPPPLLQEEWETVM

**Q.** For `CC[C@H](C)[C@H](NC(=O)[C@H](CCC(=O)O)NC(=O)C(C)(C)NC(=O)[C@@H](NC(=O)C(C)(C)N)C(C)C)C(=O)N[C@@H](CCC(N)=O)C(=O)N[C@@H](CC(C)C)C(=O)N[C@@H](CCSC)C(=O)N[C@@H](Cc1c[nH]cn1)C(=O)N[C@@H](CCC(N)=O)C(=O)N[C@@H](CCCCNC(=N)N)C(=O)N[C@@H](C)C(=O)N[C@@H](CCCCN)C(=O)N[C@@H](Cc1c[nH]c2ccccc12)C(N)=O` [[Aib^1,3,M]PTH(1-14), [Aib^1,3,Gln^10,Har^11,Ala^12,Trp^14]PTH(1-14)NH2] (H-[Aib]V[Aib]EIQLMHQ[hArg]AKW-NH2), which EC50 (hP1R-delNt) is on record?
**A.** The EC50 was 6.4 ± 1.6 nM.

**Q.** Which results are given for `CC[C@H](C)[C@H](NC(=O)[C@H](CCC(=O)O)NC(=O)C(CC)(CC)NC(=O)[C@@H](NC(=O)C(N)(CC)CC)C(C)C)C(=O)N[C@@H](CCC(N)=O)C(=O)N[C@@H](CC(C)C)C(=O)N[C@@H](CCSC)C(=O)N[C@@H](Cc1c[nH]cn1)C(=O)N[C@@H](CCC(N)=O)C(=O)N[C@@H](CCCCNC(=N)N)C(=O)N[C@@H](C)C(=O)N[C@@H](CCCCN)C(=O)N[C@@H](Cc1c[nH]c2ccccc12)C(N)=O` [[Deg^1,3,M]PTH(1-14), [Deg^1,3,Gln^10,Har^11,Ala^12,Trp^14]PTH(1-14)NH2] (H-[Deg]V[Deg]EIQLMHQ[hArg]AKW-NH2)?
**A.** maximum cAMP response as percent of that attained by the parent peptide ([1]; HKRK-B28 cells): 45%; cAMP agonist activity / signaling potency (in words) [1]: true partial agonist for cAMP formation; cAMP agonist activity / signaling potency (in words) ([1]; listed as [Deg^1,3,Gln^10,Har^11,Ala^12,Trp^14]pTH(1-14)NH2): partial agonist response; P1R binding affinity (in words) ([2]; in words): bound with adequate affinity; binding affinity higher than that of parent [M]PTH(1-14) ([2]; relative to parent [M]PTH(1-14)): 50 fold; EC50 (hP1R-delNt): 1400 ± 500 nM; agonist behavior (in words) (hP1R-delNt): partial agonist behavior; increase in cAMP accumulation (Emax) over basal (hP1R-delNt): 23 fold

**Q.** With “[Ac5c^1,Aib^3]PTH(1-9)NH2 ([Ac5c]V[Aib]EIQLMH-NH2; N-terminus assumed; SMILES CC[C@H](C)[C@H](NC(=O)[C@H](CCC(=O)O)NC(=O)C(C)(C)NC(=O)[C@@H](NC(=O)C1(N)CCCC1)C(C)C)C(=O)N[C@@H](CCC(N)=O)C(=O)N[C@@H](CC(C)C)C(=O)N[C@@H](CCSC)C(=O)N[C@@H](Cc1c[nH]cn1)C(N)=O) [[Ac5c^1,Aib^3,M]PTH(1-9)]” as the compound, how does the “increase in cAMP levels relative to basal” value ([1]; HKRK-B28 cells, peptide at 1×10^−4M) read?
**A.** The value was “six”.

**Q.** And the “cAMP agonist activity / signaling potency (in words)” value [1]?
**A.** The value was “clear cAMP response”.

**Q.** And the “cAMP agonist activity at single high concentration (in words)” value ([1]; peptide at 10^−4M)?
**A.** The value was “clear agonist activity”.

**Q.** What about the “inhibition of tracer radioligand binding” value ([2]; concentrations as high as 1×10^−4M, HKRK-B28 cells) of the same compound?
**A.** The value was “neither peptide inhibited the binding”.

**Q.** For “[Ac5c^1,Trp^2,Aib^3, M]PTH(1-14) (H-[Ac5c]W[Aib]EIQLMHQ[hArg]AKW-NH2; SMILES CC[C@H](C)[C@H](NC(=O)[C@H](CCC(=O)O)NC(=O)C(C)(C)NC(=O)[C@H](Cc1c[nH]c2ccccc12)NC(=O)C1(N)CCCC1)C(=O)N[C@@H](CCC(N)=O)C(=O)N[C@@H](CC(C)C)C(=O)N[C@@H](CCSC)C(=O)N[C@@H](Cc1c[nH]cn1)C(=O)N[C@@H](CCC(N)=O)C(=O)N[C@@H](CCCCNC(=N)N)C(=O)N[C@@H](C)C(=O)N[C@@H](CCCCN)C(=O)N[C@@H](Cc1c[nH]c2ccccc12)C(N)=O)”, which “inhibition of the agonist activity of [Aib1,3,M]PTH(1-14)” value (P1R) is on record?
**A.** Its value is 50%.
